Experimental data: US11702404B2, “GLP-1R modulating compounds” (priority 2019, dated 2023)
Read-outs that look alike come from different tables or passages of the source.

How the values were obtained:
[1] = Microsomal stability, human liver microsomes (predicted hepatic clearance); settings: predicted from in vitro microsomal stability data
[2] = biological target: GLP-1R (Homo sapiens, UniProt P43220); assay: GLP-1R activation: cAMP increase in CHO cells stably expressing GLP-1R; format: cell-based
Sequence of GLP-1R (P43220 24-463): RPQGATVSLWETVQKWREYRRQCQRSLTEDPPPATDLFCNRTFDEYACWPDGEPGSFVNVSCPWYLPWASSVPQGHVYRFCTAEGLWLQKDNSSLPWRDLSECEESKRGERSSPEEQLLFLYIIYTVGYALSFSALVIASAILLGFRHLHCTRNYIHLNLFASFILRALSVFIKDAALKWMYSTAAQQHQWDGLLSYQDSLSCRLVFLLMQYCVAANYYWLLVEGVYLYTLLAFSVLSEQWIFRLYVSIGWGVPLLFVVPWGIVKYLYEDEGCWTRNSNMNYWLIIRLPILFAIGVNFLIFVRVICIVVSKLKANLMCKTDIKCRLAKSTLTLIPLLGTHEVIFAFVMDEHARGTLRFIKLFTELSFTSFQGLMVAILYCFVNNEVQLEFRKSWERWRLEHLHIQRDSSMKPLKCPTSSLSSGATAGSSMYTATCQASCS

[3] = cAMP increase, CHO cells stably expressing GLP-1R, 10 point dose response, 30 minutes incubation, read-out: EC50

Row | Predicted Hepatic Clearance (Pred. Cl.) [1] | EC50 [2, 3] | Compound | EC50 ([2]; EC50 (nM))
1 | 5.17 mL/min/kg | 6.34 nM | N#Cc1ccc(COc2cccc(-c3ccc(Cc4nc5ccc(C(=O)O)cc5n4Cc4cncn4C4CC4)c(F)c3)n2)c(F)c1 [Example 7, 2-(4-(6-((4-cyano-2-fluorobenzyl)oxy)pyridin-2-yl)-2-fluorobenzyl)-1-((1-cyclopropyl-1H-imidazol-5-yl)methyl)-1H-benzo[d]imidazole-6-carboxylic acid] | 
2 | 4.33 mL/min/kg | 26.4 nM | N#Cc1ccc(COc2cccc(-c3ccc(Cc4nc5ccc(C(=O)O)cc5n4Cc4cncn4C4CC4)c(F)c3)c2)c(F)c1 [Example 8, 2-((3′-((4-cyano-2-fluorobenzyl)oxy)-3-fluoro-[1,1′-biphenyl]-4-yl)methyl)-1-((1-cyclopropyl-1H-imidazol-5-yl)methyl)-1H-benzo[d]imidazole-6-carboxylic acid] | 
3 | <1.83 mL/min/kg | 1.75 nM | CC1(Cn2c(Cc3ccc(-c4cccc(OCc5ccc(C#N)cc5F)n4)cc3F)nc3ccc(C(=O)O)cc32)CC1 [Example 9, 2-(4-(6-((4-cyano-2-fluorobenzyl)oxy)pyridin-2-yl)-2-fluorobenzyl)-1-((1-methylcyclopropyl)methyl)-1H-benzo[d]imidazole-6-carboxylic acid] | 
4 | 2.83 mL/min/kg | 0.57 nM | N#Cc1ccc(COc2cccc(-c3ccc(Cc4nc5ccc(C(=O)O)cc5n4CC4(CF)CC4)c(F)c3)n2)c(F)c1 [Example 10, 2-(4-(6-((4-cyano-2-fluorobenzyl)oxy)pyridin-2-yl)-2-fluorobenzyl)-1-((1-(fluoromethyl)cyclopropyl)methyl)-1H-benzo[d]imidazole-6-carboxylic acid] | 
5 | 4.17 mL/min/kg | 2.7 nM | N#Cc1ccc(COc2cccc(-c3ccc(Cc4nc5ccc(C(=O)O)cc5n4CC4(C#N)CC4)c(F)c3)n2)c(F)c1 [Example 13, 2-(4-(6-((4-cyano-2-fluorobenzyl)oxy)pyridin-2-yl)-2-fluorobenzyl)-1-((1-cyanocyclopropyl)methyl)-1H-benzo[d]imidazole-6-carboxylic acid] | 
6 | 5 mL/min/kg | 3.14 nM | CC(C)(C#N)Cn1c(Cc2ccc(-c3cccc(OCc4ccc(C#N)cc4F)n3)cc2F)nc2ccc(C(=O)O)cc21 [Example 14, 2-(4-(6-((4-cyano-2-fluorobenzyl)oxy)pyridin-2-yl)-2-fluorobenzyl)-1-(2-cyano-2-methylpropyl)-1H-benzo[d]imidazole-6-carboxylic acid] | 
7 | 5.5 mL/min/kg | 0.55 nM | N#CCC1(Cn2c(Cc3ccc(-c4cccc(OCc5ccc(C#N)cc5F)n4)cc3F)nc3ccc(C(=O)O)cc32)CC1 [Example 16, 2-(4-(6-((4-cyano-2-fluorobenzyl)oxy)pyridin-2-yl)-2-fluorobenzyl)-1-((1-(cyanomethyl)cyclopropyl)methyl)-1H-benzo[d]imidazole-6-carboxylic acid] | 
8 | 2.67 mL/min/kg | 11 nM | N#Cc1ccc(COc2cccc(-c3ccc(Cc4nc5ccc(C(=O)O)cc5n4CC4CCS4(=O)=O)c(F)c3)n2)c(F)c1 (stereo not drawn) [Example 17, 2-(4-(6-((4-cyano-2-fluorobenzyl)oxy)pyridin-2-yl)-2-fluorobenzyl)-1-((1,1-dioxidothietan-2-yl)methyl)-1H-benzo[d]imidazole-6-carboxylic acid] | 
9 | 2.5 mL/min/kg | 3.6 nM | CC1(Cn2c(Cc3ccc(-c4cccc(OCc5ccc(C#N)cc5F)n4)cc3F)nc3ccc(C(=O)O)nc32)CC1 [Example 18, 2-(4-(6-((4-cyano-2-fluorobenzyl)oxy)pyridin-2-yl)-2-fluorobenzyl)-3-((1-methylcyclopropyl)methyl)-3H-imidazo[4,5-b]pyridine-5-carboxylic acid] | 
10 | 3 mL/min/kg | 0.78 nM | COCCn1c(Cc2ccc(-c3cccc(OCc4ccc(C#N)cc4F)n3)cc2C#N)nc2ccc(C(=O)O)cc21 [Example 22, 2-(2-cyano-4-(6-((4-cyano-2-fluorobenzyl)oxy)pyridin-2-yl)benzyl)-1-(2-methoxyethyl)-1H-benzo[d]imidazole-6-carboxylic acid] | 
11 | 7.33 mL/min/kg | 25.9 nM | COCCn1c(Cc2ccc(-c3nccc(OCc4ccc(C#N)cc4F)n3)cc2F)nc2ccc(C(=O)O)cc21 [Example 25, 2-{[4-[4-[(4-cyano-2-fluoro-phenyl)methoxy]pyrimidin-2-yl]-2-fluoro-phenyl]methyl}-3-(2-methoxyethyl)benzimidazole-5-carboxylic acid] | 
12 | 4.67 mL/min/kg | 115 nM | COCCn1c(Cc2ccc(-c3csc(OCc4ccc(C#N)cc4F)n3)cc2F)nc2ccc(C(=O)O)cc21 [Example 26, 2-(4-(2-((4-cyano-2-fluorobenzyl)oxy)thiazol-4-yl)-2-fluorobenzyl)-1-(2-methoxyethyl)-1H-benzo[d]imidazole-6-carboxylic acid] | 
13 | 2.5 mL/min/kg | 78 nM | COCCn1c(Cc2ccc(-c3cc(F)cc(OCc4ccc(C#N)cc4F)c3)cc2F)nc2ccc(C(=O)O)cc21 [Example 27, 2-((3′-((4-cyano-2-fluorobenzyl)oxy)-3,5′-difluoro-[1,1′-biphenyl]-4-yl)methyl)-1-(2-methoxyethyl)-1H-benzop[d]imidazole-6-carboxylic acid] | 
14 | 3.17 mL/min/kg | 94 nM | COCCn1c(Cc2ccc(-c3cc(OCc4ccc(C#N)cc4F)ccc3F)cc2F)nc2ccc(C(=O)O)cc21 [Example 28, 2-((5′-((4-cyano-2-fluorobenzyl)oxy)-2′,3-difluoro-[1,1′-biphenyl]-4-yl)methyl)-1-(2-methoxyethyl)-1H-benzo[d]imidazole-6-carboxylic acid] | 
15 | 5.17 mL/min/kg | 57 nM | COCCn1c(Cc2ccc(-c3cc(C#N)cc(OCc4ccc(C#N)cc4F)c3)cc2F)nc2ccc(C(=O)O)cc21 [Example 29, 2-((3′-cyano-5′-((4-cyano-2-fluorobenzyl)oxy)-3-fluoro-[1,1′-biphenyl]-4-yl)methyl)-1-(2-methoxyethyl)-1H-benzo[d]imidazole-6-carboxylic acid] | 
16 | 4.67 mL/min/kg | 1350 nM | COCCn1c(Cc2ccc(-c3cc(OC)cc(OCc4ccc(C#N)cc4F)c3)cc2F)nc2ccc(C(=O)O)cc21 [Example 30, 2-((3′-((4-cyano-2-fluorobenzyl)oxy)-3-fluoro-5′-methoxy-[1,1′-biphenyl]-4-yl)methyl)-1-(2-methoxyethyl)-1H-benzo[d]imidazole-6-carboxylic acid] | 
17 | 4.67 mL/min/kg | 32 nM | COCCn1c(Cc2ccc(-c3cc(C)cc(OCc4ccc(C#N)cc4F)n3)cc2F)nc2ccc(C(=O)O)cc21 [Example 31, 2-(4-(6-((4-cyano-2-fluorobenzyl)oxy)-4-methylpyridin-2-yl)-2-fluorobenzyl)-1-(2-methoxyethyl)-1H-benzo[d]imidazole-6-carboxylic acid] | 
18 | 7.83 mL/min/kg | > 1000 nM | COCCn1c(C2(c3ccc(-c4cccc(OCc5ccc(C#N)cc5F)n4)cc3)CC2)nc2ccc(C(=O)O)cc21 [Example 32, 2-(1-(4-(6-((4-cyano-2-fluorobenzyl)oxy)pyridin-2-yl)phenyl)cyclopropyl)-1-(2-methoxyethyl)-1H-benzo[d]imidazole-6-carboxylic acid] | 
19 | 5 mL/min/kg | 26.9 nM | COCCn1c(Cc2ccc(-c3cccc(OCc4ccc(C#N)cc4F)n3)cc2OC)nc2ccc(C(=O)O)cc21 [Example 33, 2-(4-(6-((4-cyano-2-fluorobenzyl)oxy)pyridin-2-yl)-2-methoxybenzyl)-1-(2-methoxyethyl)-1H-benzo[d]imidazole-6-carboxylic acid] | 
20 | 9.83 mL/min/kg | 2180 nM | COCCn1c(Cc2ccc(-c3cccc(OCc4ccc(C#N)cc4F)n3)c(C(F)(F)F)c2)nc2ccc(C(=O)O)cc21 [Example 34, 2-(4-(6-((4-cyano-2-fluorobenzyl)oxy)pyridin-2-yl)-3-(trifluoromethyl)benzyl)-1-(2-methoxyethyl)-1H-benzo[d]imidazole-carboxylic acid] | 
21 | 5.17 mL/min/kg | 1000 nM | COCCn1c(Cc2ccc(-c3cccc(OCc4ccc(C#N)cc4F)n3)c3ccccc23)nc2ccc(C(=O)O)cc21 [Example 35, 2-((4-(6-((4-cyano-2-fluorobenzyl)oxy)pyridin-2-yl)naphthalen-1-yl)methyl)-1-(2-methoxyethyl)-1H-benzo[d]imidazole-carboxylic acid] | 
22 | 4 mL/min/kg | 107 nM | COCCn1c(C2CCc3cc(-c4cccc(OCc5ccc(C#N)cc5F)n4)ccc32)nc2ccc(C(=O)O)cc21 (stereo not drawn) [Example 36, 2-(5-(6-((4-cyano-2-fluorobenzyl)oxy)pyridin-2-yl)-2,3-dihydro-1H-inden-1-yl)-1-(2-methoxyethyl)-1H-benzo[d]imidazole-carboxylic acid] | 

Row | Compound | Predicted Hepatic Clearance (Pred. Cl.) [1] | EC50 [2, 3] | EC50 ([2]; EC50 (nM))
23 | COCCn1c(Cc2ccc(-c3cccc(OCc4ccc(C#N)cc4F)n3)c(C)c2)nc2ccc(C(=O)O)cc21 [Example 20, 2-{[4-[6-[(4-cyano-2-fluoro-phenyl)methoxy]-2-pyridyl]-3-methyl-phenyl]methyl}-3-(2-methoxyethyl)benzimidazole-5-carboxylic acid] | 2.33 mL/min/kg |  | 24.1 nM
24 | COCCn1c(Cc2ccc(-c3cccc(OCc4ccc(C#N)cc4F)n3)c(C)c2)nc2ccc(C(=O)O)cc21 [Example 21, 2-(4-(6-((4-cyano-2-fluorobenzyl)oxy)pyridin-2-yl)-3-methylbenzyl)-1-(2-methoxyethyl)-1H-benzo[d]imidazole-6-carboxylic acid] | <1.83 mL/min/kg |  | 70.9 nM
